Measurements published in patent publication US8624034B2, “Fluoro-pyridinone derivatives useful as antibacterial agents” (Pfizer Inc., priority 2011, dated 2014).
Values after ≈ are worked out from the molar mass of the structure shown. Values joined by “and” are separate entries in the source; they are usually repeats but may differ in a detail not shown here. Equal values may be shown once.

Assays:
[1] = target: T1, Pseudomonas aeruginosa LpxC enzyme (Pseudomonas aeruginosa, UniProt P47205); assay: IC50 assay, LpxC enzyme from P. aeruginosa (PA LpxC enzyme IC50); assay type: biochemical; conditions: Table 3; LpxC enzyme 0.1 nM, 25° C., 1 hour; read-out: PA:IC50
T1 construct: made in house; host or cells: E. coli
T1 sequence (P47205 1-303): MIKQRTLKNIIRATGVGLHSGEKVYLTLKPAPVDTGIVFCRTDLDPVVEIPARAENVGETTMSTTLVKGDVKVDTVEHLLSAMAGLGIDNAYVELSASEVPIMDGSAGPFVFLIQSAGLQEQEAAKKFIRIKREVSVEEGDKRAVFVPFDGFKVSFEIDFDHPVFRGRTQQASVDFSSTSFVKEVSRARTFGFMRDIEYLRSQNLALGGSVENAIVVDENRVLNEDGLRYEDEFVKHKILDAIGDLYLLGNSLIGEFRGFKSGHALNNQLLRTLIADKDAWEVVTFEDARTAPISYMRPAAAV
Procedure: In order to assess the compounds biological activity, selected in vitro assays were conducted on selected compounds. One of the assays measured the compounds ability to disrupt the synthesis of lipopolysaccharide, LPS, which is a component of the outer membrane of Gram-negative bacteria. Disruption of this synthesis is lethal to the bacteria. The assay determined the compound's ability to inhibit LpxC, which is the first enzyme in the biosynthetic pathway for LPS (measured as IC50). Additionally, MICs (minimal inhibitory concentrations) were determined for several bacteria. The specific protocols are described below:
A) IC50 Assay, LpxC Enzyme from P. aeruginosa (Labeled as PA LpxC Enzyme IC50):
At the end of 1 hour, 5 ul of 1 N HCl was added to stop the enzyme reaction, the plates were centrifuged, and then processed with the BioTrove Rapidfire HTMS Mass Spectrometry System. A no-enzyme control was used in calculating the IC50 values from the percent conversion values.

[2] = test system: Acinetobacter baumannii/haemolyticus, multidrug-resistant clinical isolate (AB-3167); assay: MIC determination, AB-3167; assay type: cell-based; conditions: Table 3, lower of duplicate values
Procedure: (§1) The in vitro antibacterial activity of compounds described in the Examples was evaluated by minimum inhibitory concentration (MIC) testing according to Clinical and Laboratory Standards Institute (CLSI). See: Clinical and Laboratory Standards Institute. Methods for Dilution Antimicrobial Susceptibility Tests for Bacteria that Grow Aerobically; Approved Standard-Eighth Edition. CLSI document M7-A8 [ISBN 1-56238-689-1]. Clinical and Laboratory Standards Institute, 940 West Valley Road, Suite 1400, Wayne, Pa. 19087-1898 USA, 2006; also Clinical and Laboratory Standards Institute. Performance Standards for Antimicrobial Susceptibility Testing; Twentieth Informational Supplement. CLSI document M100-S20 [ISBN 1-56238-716-2]. Clinical and Laboratory Standards Institute.
(§2) The MIC determination is a standard laboratory method for evaluating the antibacterial activity of a compound. The MIC represents the lowest drug concentration that inhibits visible growth of bacteria following overnight incubation. […] Typically, the drug concentration range is broken down into 2-fold increments (e.g. 0.06 μg/mL, 0.12 μg/mL. 0.25 μg/mL, 0.50 μg/mL, 1.0 μg/mL, etc.) and the various drug concentrations are all individually incubated overnight with approximately the same number of bacteria. The MIC is then determined by visually inspecting the drug effect at each concentration, and identifying the lowest drug concentration that has inhibited bacterial growth as compared to the drug free control. Typically, bacteria continue to grow at drug concentrations lower than the MIC and don't grow at concentrations at and above the MIC.
(§3) The MIC values described in Table 2 and 3 below were derived from assays wherein each test compound was evaluated in duplicate. In cases where the duplicate values varied by 0-2-fold, the lower of the two values was reported below. Generally speaking, if the duplicate values varied by more than 2-fold, the assay was considered non-valid and was repeated until the variation between duplicate runs was ≦2-fold. In line with the CLSI guidelines referred to above, both control organisms and reference compounds were utilized in each MIC assay to provide proper quality control. MIC values generated with these control organisms and reference compounds were required to fall within a defined range for the assay to be considered valid and be included herein. Those skilled in the art will recognize that MIC values can and do vary from experiment to experiment. Generally speaking, it should be recognized that MIC values often vary +/−2-fold from experiment to experiment. While a single MIC is reported for each compound and each microorganism, the reader should not conclude that each compound was only tested once. Several of the compounds were subjected to multiple tests. The data reported in Tables 2 and 3 is reflective of the compounds relative activity and different MICs may have been generated on these occasions in line with the guidelines described above.
(§4) The following bacterial strains were used in these MIC determinations:
2) Acinetobacter baumannii/haemolyticus: Multidrug-resistant clinical isolate labeled as AB-3167 in Tables 2 and 3;

[3] = test system: Escherichia coli EC-1: VOGEL, mouse virulent; assay: MIC determination, EC-1; assay type: cell-based; conditions: for MIC: Escherichia coli, read-out: EC-1 (MIC), Table 3, lower of duplicate values
Procedure: as §1, §2, §3, §4
3) Escherichia coli EC-1: VOGEL, mouse virulent labeled as EC-1 in Tables 2 and 3;

[4] = test system: PA:UC12120; assay: MIC determination, PA:UC12120 (Table 3); assay type: cell-based, Pseudomonas aeruginosa; conditions: for MIC: Pseudomonas aeruginosa, UC12120, Table 3, lower of duplicate values
Procedure: as §1, §2, §3
In Table 3 below, column 1 corresponds to the Example number, column 2 provides the IUPAC name, columns 3-6 provide in vitro biological data generated in the same manner as in Table 2, columns 7 and 8 provide the retention times and mass spectra generated via LCMS, using the method described below. All data is not currently available for all compounds, as indicated by a blank cell in Table 3.

[5] = Table 3, lower of duplicate values

Row | Structure (SMILES) | IC50 [1] | MIC [2] [µg/mL] | MIC [3] [µg/mL] | MIC [4] [µg/mL] | EC-1 (MIC) [3, 5] [µg/mL] | PA:UC12120 (MIC) [4, 5] [µg/mL]
1 | CC(CCn1cc(F)c(-c2ccc3c(c2)C(=O)NC3)cc1=O)(C(=O)NO)S(C)(=O)=O (stereo not shown) [Example 50, 4-[5-fluoro-2-oxo-4-(3-oxo-2,3-dihydro-1H-isoindol-5-yl)pyridin-1(2H)-yl]-N-hydroxy-2-methyl-2-(methylsulfonyl)butanamide] | 68.2 nM | > 64 | > 64 | > 64 | – | –
2 | CC(CCn1cc(F)c(-c2ccc3cn[nH]c3c2)cc1=O)(C(=O)NO)S(C)(=O)=O (stereo not shown) [Example 51, 4-[5-fluoro-4-(1H-indazol-6-yl)-2-oxopyridin-1(2H)-yl]-N-hydroxy-2-methyl-2-(methylsulfonyl)butanamide] | 3.9 nM | > 64 | > 64 | > 64 | – | –
3 | CNC(=O)c1ccc(-c2cc(=O)n(CCC(C)(C(=O)NO)S(C)(=O)=O)cc2F)cc1F (stereo not shown) [Example 52, 2-fluoro-4-{5-fluoro-1-[4-(hydroxyamino)-3-methyl-3-(methylsulfonyl)-4-oxobutyl]-2-oxo-1,2-dihydropyridin-4-yl}-N-methylbenzamide] | 2.2 nM | > 64 | 64 (≈ 140 µM) | 32 (≈ 70 µM) | – | –
4 | CC(CCn1cc(F)c(-c2ccc(O)cc2)cc1=O)(C(=O)NO)S(C)(=O)=O (stereo not shown) [Example 53, 4-[5-fluoro-4-(4-hydroxyphenyl)-2-oxopyridin-1(2H)-yl]-N-hydroxy-2-methyl-2-(methylsulfonyl)butanamide] | 4.2 nM | > 64 | > 64 | 64 (≈ 161 µM) | – | –
5 | COc1ccc(OC)c(-c2cc(=O)n(CCC(C)(C(=O)NO)S(C)(=O)=O)cc2F)c1 (stereo not shown) [Example 54, 4-[4-(2,5-dimethoxyphenyl)-5-fluoro-2-oxopyridin-1(2H)-yl]-N-hydroxy-2-methyl-2-(methylsulfonyl)butanamide] | > 100 nM | > 64 | > 64 | > 64 | – | –
6 | CC(CCn1cc(F)c(-c2cncc(F)c2)cc1=O)(C(=O)NO)S(C)(=O)=O (stereo not shown) [Example 55, 4-(5,5′-difluoro-2′-oxo-3,4′-bipyridin-1′(2′H)-yl)-N-hydroxy-2-methyl-2-(methylsulfonyl)butanamide] | 66.8 nM | > 64 | > 64 | 64 (≈ 159 µM) | – | –
7 | CC(CCn1cc(F)c(-c2cc(F)cc(Cl)c2)cc1=O)(C(=O)NO)S(C)(=O)=O (stereo not shown) [Example 56, 4-[4-(3-chloro-5-fluorophenyl)-5-fluoro-2-oxopyridin-1(2H)-yl]-N-hydroxy-2-methyl-2-(methylsulfonyl)butanamide] | 2 nM | > 64 | 8 (≈ 18.4 µM) | 2 (≈ 4.6 µM) | – | –
8 | CN1Cc2ccc(-c3cc(=O)n(CCC(C)(C(=O)NO)S(C)(=O)=O)cc3F)cc2C1=O (stereo not shown) [Example 57, 4-[5-fluoro-4-(2-methyl-3-oxo-2,3-dihydro-1H-isoindol-5-yl)-2-oxopyridin-1(2H)-yl]-N-hydroxy-2-methyl-2-(methylsulfonyl)butanamide] | 21 nM | > 64 | > 64 | > 64 | – | –
9 | CC(CCn1cc(F)c(-c2ccc(C#N)c(F)c2)cc1=O)(C(=O)NO)S(C)(=O)=O (stereo not shown) [Example 58, 4-[4-(4-cyano-3-fluorophenyl)-5-fluoro-2-oxopyridin-1(2H)-yl]-N-hydroxy-2-methyl-2-(methylsulfonyl)butanamide] | 2.6 nM | > 64 | 32 (≈ 75.2 µM) | 8 (≈ 18.8 µM) | – | –
10 | COc1ccc(-c2cc(=O)n(CCC(C)(C(=O)NO)S(C)(=O)=O)cc2F)cc1 (stereo not shown) [Example 59, 4-[5-fluoro-4-(4-methoxyphenyl)-2-oxopyridin-1(2H)-yl]-N-hydroxy-2-methyl-2-(methylsulfonyl)butanamide] | 1 nM | > 64 | 1 (≈ 2.42 µM) | 1 (≈ 2.42 µM) | – | –
11 | CC(C)(C#N)c1ccc(-c2cc(=O)n(CCC(C)(C(=O)NO)S(C)(=O)=O)cc2F)cc1 (stereo not shown) [Example 60, 4-{4-[4-(1-cyano-1-methylethyl)phenyl]-5-fluoro-2-oxopyridin-1(2H)-yl}-N-hydroxy-2-methyl-2-(methylsulfonyl)butanamide] | 3.9 nM | > 64 | 32 (≈ 71.2 µM) | 4 (≈ 8.9 µM) | – | –
12 | CC(=O)Nc1cccc(-c2cc(=O)n(CCC(C)(C(=O)NO)S(C)(=O)=O)cc2F)c1 (stereo not shown) [Example 61, 4-[4-(3-acetamidophenyl)-5-fluoro-2-oxopyridin-1(2H)-yl]-N-hydroxy-2-methyl-2-(methylsulfonyl)butanamide] | > 100 nM | > 64 | > 64 | > 64 | – | –
13 | COc1c(F)cc(-c2cc(=O)n(CCC(C)(C(=O)NO)S(C)(=O)=O)cc2F)cc1F (stereo not shown) [Example 62, 4-[4-(3,5-difluoro-4-methoxyphenyl)-5-fluoro-2-oxopyridin-1(2H)-yl]-N-hydroxy-2-methyl-2-(methylsulfonyl)butanamide] | 2 nM and 3.1 nM | > 64 | 4 (≈ 8.92 µM) | 2 (≈ 4.46 µM) | 8 | 1
14 | CC(CCn1cc(F)c(-c2ccc(F)c(CO)c2)cc1=O)(C(=O)NO)S(C)(=O)=O (stereo not shown) [Example 105, 4-{5-fluoro-4-[4-fluoro-3-(hydroxymethyl)phenyl]-2-oxopyridin-1(2H)-yl}-N-hydroxy-2-methyl-2-(methylsulfonyl)butanamide] | – | > 64 | > 64 | > 64 | – | –
15 | CC(CCn1cc(F)c(-c2cc[nH]n2)cc1=O)(C(=O)NO)S(C)(=O)=O (stereo not shown) [Example 121, 4-[5-fluoro-2-oxo-4-(1H-pyrazol-3-yl)pyridin-1(2H)-yl]-N-hydroxy-2-methyl-2-(methylsulfonyl)butanamide] | – | > 64 | > 64 | > 64 | – | –
16 | CC(CCn1cc(F)c(-c2cccc(CO)c2F)cc1=O)(C(=O)NO)S(C)(=O)=O (stereo not shown) [Example 122, 4-{5-fluoro-4-[2-fluoro-3-(hydroxymethyl)phenyl]-2-oxopyridin-1(2H)-yl}-N-hydroxy-2-methyl-2-(methylsulfonyl)butanamide] | 2.4 nM | – | – | – | – | –
17 | CC(CCn1cc(F)c(-c2cccc(CC(N)=O)c2)cc1=O)(C(=O)NO)S(C)(=O)=O (stereo not shown) [Example 123, 4-{4-[3-(2-amino-2-oxoethyl)phenyl]-5-fluoro-2-oxopyridin-1(2H)-yl}-N-hydroxy-2-methyl-2-(methylsulfonyl)butanamide] | – | > 64 | > 64 | > 64 | – | –
